Experimental data from patent publication US20240109881A1, “Heteroaryl Compounds as Ligand Directed Degraders of IRAK4” (Bristol-Myers Squibb Company, priority 2022, published 2024).

Columns and labels:
IRAK4 [1] = target: T1, IRAK4 (Homo sapiens, UniProt Q9NWZ3); assay: ALE THP1 HTRF (Advanced Lipoxidation End Product THP1 Homogeneous Time Resolved Fluorescence); type: cell-based; conditions: THP1 cells
T1 construct: endogenous in cells; host or cells: THP-1 cells
T1 sequence (Q9NWZ3 1-460): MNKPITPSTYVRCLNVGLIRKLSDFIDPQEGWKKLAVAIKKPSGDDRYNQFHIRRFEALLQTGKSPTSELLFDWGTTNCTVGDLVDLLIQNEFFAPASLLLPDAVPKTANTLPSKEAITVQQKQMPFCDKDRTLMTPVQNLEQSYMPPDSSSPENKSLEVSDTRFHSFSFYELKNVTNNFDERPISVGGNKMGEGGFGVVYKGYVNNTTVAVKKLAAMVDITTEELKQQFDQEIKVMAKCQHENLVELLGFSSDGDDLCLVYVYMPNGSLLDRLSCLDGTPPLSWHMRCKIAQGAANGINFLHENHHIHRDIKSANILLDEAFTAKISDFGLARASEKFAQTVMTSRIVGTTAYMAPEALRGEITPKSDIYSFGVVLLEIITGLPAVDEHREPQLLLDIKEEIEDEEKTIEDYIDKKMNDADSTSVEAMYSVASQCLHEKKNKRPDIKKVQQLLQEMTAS
Summary of the method: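 Cells lysed 45 min at room temperature; lysates normalized to total protein by BCA. Total IRAK4 detected by HTRF sandwich (anti-IRAK4-d2 plus anti-IRAK4-cryptate), incubated overnight in the dark at room temperature, read on a time-resolved fluorescence plate reader.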

IRAK4 [2] = target: T1, IRAK4; assay: LVL THP1 HTRF (THP1 Homogeneous Time Resolved Fluorescence); type: cell-based; conditions: THP1 cells, 18 h incubation with compound; for DC50: read-out: LVL THP1 HTRF EC50
Summary of the method: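 THP-1 cells in phenol red-free RPMI with 10% FBS were dosed with compound (20 nL in DMSO) for 18 h at 37° C. After 2 h lysis, IRAK4 was detected with anti-IRAK4-d2/anti-IRAK4-K HTRF antibodies for 18 h at room temperature and read at 665/615 nm; a parallel CTG plate was run.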

Compound	ALE THP1 HTRF YMIN (IRAK4 [1]) [%]	EC50 (IRAK4 [1]) [nM]	LVL THP1 HTRF YMIN (IRAK4 [2]) [%]	DC50 (IRAK4 [2]) [nM]
O=C1CCC(c2ccc(N3CCN(CC[C@H]4CC[C@H](NC(=O)c5cnc(-n6ncc7cncnc76)cc5NC5CC5)CC4)CC3)cc2)C(=O)N1 (stereo partly drawn) [P-117]	13.6	33		
N#Cc1cnc2c(cnn2-c2cc(NCCC(F)(F)F)c(C(=O)N[C@H]3CC[C@H](CCN4CCN(c5ccc(C6CCC(=O)NC6=O)cc5)CC4)CC3)cn2)c1 (stereo partly drawn) [P-118]	9.9	34		
CCC1(Nc2cc(-n3ncc4cc(C#N)cnc43)ncc2C(=O)N[C@H]2CC[C@H](CCN3CCN(c4ccc(C5CCC(=O)NC5=O)cc4)CC3)CC2)CC1 (stereo partly drawn) [P-119]	8.3	25		
C[C@@H]1CN(CC[C@H]2CC[C@H](NC(=O)c3cnc(-n4ncc5cc(C#N)cnc54)cc3NC3CC3)CC2)CCN1c1ccc(C2CCC(=O)NC2=O)cc1 (stereo partly drawn) [P-120]	7.2	15		
C[C@H]1CN(CC[C@H]2CC[C@H](NC(=O)c3cnc(-n4ncc5cc(C#N)cnc54)cc3NC3CC3)CC2)CCN1c1ccc(C2CCC(=O)NC2=O)cc1 (stereo partly drawn) [P-121]	11.0	13		
N#Cc1cnc2c(cnn2-c2cc(NC3(C#N)CC3)c(C(=O)N[C@H]3CC[C@H](CCN4CCN(c5ccc(C6CCC(=O)NC6=O)cc5)CC4)CC3)cn2)c1 (stereo partly drawn) [P-122]	10.4	80		
N#Cc1cnn2c(-c3cc(NC4CC4)c(C(=O)N[C@H]4CC[C@H](CCN5CCN(c6ccc(C7CCC(=O)NC7=O)cc6)CC5)CC4)cn3)cnc2c1 (stereo partly drawn) [P-123]	24.4	62		
N#Cc1cnc2c(cnn2-c2cc(NC3CC3)c(C(=O)N[C@H]3CC[C@H](CCN4CC5(C4)CN(c4ccc(C6CCC(=O)NC6=O)cc4)C5)CC3)cn2)c1 (stereo partly drawn) [P-124]	19.2	46		
CN(C[C@H]1CC[C@H](NC(=O)c2cnc(-n3ncc4cc(C#N)cnc43)cc2NC2CC2)CC1)C1CCN(c2ccc3c(c2)CN(C2CCC(=O)NC2=O)C3=O)CC1 (stereo partly drawn) [P-127]	24.5	8		
N#Cc1cnc2c(cnn2-c2cc(NC3CC3)c(C(=O)N[C@H]3CC[C@H](C(=O)NC4CCN(c5ccc6c(c5)CN(C5CCC(=O)NC5=O)C6=O)CC4)CC3)cn2)c1 (stereo partly drawn) [P-129]	24.2	47		
N#Cc1cnc2c(cnn2-c2cc(NC3CC3)c(C(=O)N[C@H]3CC[C@H](CN4CCC5(CCN(c6ccc7c(c6)CN(C6CCC(=O)NC6=O)C7=O)CC5)C4)CC3)cn2)c1 (stereo partly drawn) [P-130]	20.0	15		
N#Cc1cc2cnn(-c3cc(NC4CC4)c(C(=O)N[C@H]4CC[C@H](CCN5CCN(c6ccc(C7CCC(=O)NC7=O)cc6)CC5)CC4)cn3)c2nc1N (stereo partly drawn) [P-131]	5.3	3		
CS(=O)(=O)N1CCC(Nc2cc(-n3ncc4cc(C#N)cnc43)ncc2C(=O)N[C@H]2CC[C@H](CCN3CCN(c4ccc(C5CCC(=O)NC5=O)cc4)CC3)CC2)CC1 (stereo partly drawn) [P-132]	7.9	13		
CS(=O)(=O)N1CCC(Nc2cc(-n3ncc4cc(C#N)c(N)nc43)ncc2C(=O)N[C@H]2CC[C@H](CCN3CCN(c4ccc(C5CCC(=O)NC5=O)cc4)CC3)CC2)CC1 (stereo partly drawn) [P-133]	6.9	10		
CC(C)Nc1cc(Nc2ccc(C#N)cc2Cl)ncc1C(=O)N[C@H]1CC[C@H](CCN2CCN(c3ccc(C4CCC(=O)NC4=O)cc3)CC2)CC1 (stereo partly drawn) [P-134]	20.9	94		
C[C@H](C#N)Nc1cc(-n2ncc3cc(C#N)c(N)nc32)ncc1C(=O)N[C@H]1CC[C@H](CCN2CCN(c3ccc(C4CCC(=O)NC4=O)cc3)CC2)CC1 (stereo partly drawn) [P-135]	7.3	1		
C[C@H](C#N)Nc1cc(-n2ncc3cc(C#N)cnc32)ncc1C(=O)N[C@H]1CC[C@H](CCN2CCN(c3ccc(C4(C)CCC(=O)NC4=O)cc3)CC2)CC1 (stereo partly drawn) [P-136]	7.4	6		
N#Cc1cnc2c(cnn2-c2cc(NC3CCC(C(N)=O)CC3)c(C(=O)N[C@H]3CC[C@H](CCN4CCN(c5ccc(C6CCC(=O)NC6=O)cc5)CC4)CC3)cn2)c1 (stereo partly drawn) [P-137]	7.7	18		

The next lines start with the values.

ALE THP1 HTRF YMIN (IRAK4 [1]) [%]	EC50 (IRAK4 [1]) [nM]	LVL THP1 HTRF YMIN (IRAK4 [2]) [%]	DC50 (IRAK4 [2]) [nM]	Compound
10.1	1	2.0	8	C[C@H](C#N)Nc1cc(-n2ncc3cc(C#N)cnc32)ncc1-n1cc(C2CCC(CCN3CCN(c4ccc(C5CCC(=O)NC5=O)cc4)[C@@H](C)C3)CC2)nn1 (stereo in doubt) [P-156]
42.1	1280			CCNc1cc(Nc2ccc3ncc(F)cc3n2)ncc1C(=O)N[C@H]1CC[C@H](CCN2CCN(c3ccc(C4CCC(=O)NC4=O)cc3)CC2)CC1 (stereo partly drawn) [P-138]
6.4	30			CC1(Nc2cc(-n3ncc4cc(C#N)cnc43)ncc2-n2cc([C@H]3CC[C@H](CCN4CCN(c5ccc(C6CCC(=O)NC6=O)cc5)CC4)CC3)nn2)CC1 (stereo partly drawn) [P-140]
6.1	< 1			O=C1CCC(c2ccc(N3CCN(CC[C@H]4CC[C@H](NC(=O)c5cnc(Nc6ccc7[nH]c(=O)sc7c6)cc5NC5CC5)CC4)CC3)cc2)C(=O)N1 (stereo partly drawn) [P-141]
9.7	46			C[C@H](C#N)Nc1cc(-n2ncc3cc(C#N)c(N)nc32)ncc1C(=O)N[C@H]1CC[C@H](CCN2CCN(c3ccc(C4CCC(=O)NC4=O)cc3)[C@H](C)C2)CC1 (stereo partly drawn) [P-142]
6.5	4			C[C@H](C#N)Nc1cc(-n2ncc3cc(C#N)cnc32)ncc1C(=O)N[C@H]1CC[C@H](CCN2CCC(c3ccc(C4CCC(=O)NC4=O)cc3)CC2)CC1 (stereo partly drawn) [P-143]
5.9	4	0.8	13	C[C@H](C#N)Nc1cc(-c2ccc3cc(C#N)cnn23)ncc1C(=O)N[C@H]1CC[C@H](CCN2CCN(c3ccc(C4CCC(=O)NC4=O)cc3)CC2)CC1 (stereo partly drawn) [P-144]
11.0	35			C[C@H](C#N)Nc1cc(-n2cc(F)c3cc(C#N)cnc32)ncc1C(=O)N[C@H]1CC[C@H](CCN2CCN(c3ccc(C4CCC(=O)NC4=O)cc3)CC2)CC1 (stereo partly drawn) [P-145]
8.0	1			C[C@H](C#N)Nc1cc(-n2ncc3cc(C#N)c(N)nc32)ncc1C(=O)N[C@H]1CC[C@H](CCN2CCC(c3ccc(C4CCC(=O)NC4=O)cc3)CC2)CC1 (stereo partly drawn) [P-146]
9.0	19			C[C@H](C#N)Nc1cc(-c2cnc3cc(C#N)cnn23)ncc1C(=O)N[C@H]1CC[C@H](CCN2CCN(c3ccc(C4CCC(=O)NC4=O)cc3)CC2)CC1 (stereo partly drawn) [P-147]
11.0	16			C[C@H](C#N)Nc1cc(-c2cnc3cc(C#N)cnn23)ncc1C(=O)N[C@H]1CC[C@H](CCN2CCC(c3ccc(C4CCC(=O)NC4=O)cc3)CC2)CC1 (stereo partly drawn) [P-148]
7.1	4			C[C@H](C#N)Nc1cc(-n2ncc3cc(C#N)cnc32)ncc1C(=O)N[C@H]1CC[C@H](CCN2[C@@H](C)CN(c3ccc(C4CCC(=O)NC4=O)cc3)C[C@@H]2C)CC1 (stereo partly drawn) [P-149]
6.2	7	<0.5	25	C[C@H](C#N)Nc1cc(-n2ncc3cc(C#N)cnc32)ncc1C(=O)N[C@H]1CC[C@H](CCN2CCN(c3ccc(C4CCC(=O)NC4=O)cc3)[C@H](C)C2)CC1 (stereo partly drawn) [P-150]
6.0	8			C[C@H](C#N)Nc1cc(-n2ncc3cc(C#N)cnc32)ncc1C(=O)N[C@H]1CC[C@H](CCN2C[C@@H](C)N(c3ccc(C4CCC(=O)NC4=O)cc3)C[C@@H]2C)CC1 (stereo partly drawn) [P-151]
15.8	20			C[C@H](C#N)Nc1cc(-n2ncc3cc(C#N)cnc32)ncc1C(=O)N[C@H]1CC[C@H](CCN2CCN(c3ccc(C4CCC(=O)NC4=O)cn3)[C@H](C)C2)CC1 (stereo partly drawn) [P-152]
4.5	17			COc1cc(N2C[C@H](C)N(CC[C@H]3CC[C@H](NC(=O)c4cnc(-n5ncc6cc(C#N)cnc65)cc4N[C@H](C)C#N)CC3)[C@@H](C)C2)ccc1C1CCC(=O)NC1=O (stereo partly drawn) [P-153]
10.0	22			N#Cc1cnc2c(cnn2-c2cc(NC3CC3)c(-n3cc([C@H]4CC[C@H](CCN5CCN(c6ccc(C7CCC(=O)NC7=O)cc6)CC5)CC4)nn3)cn2)c1 (stereo partly drawn) [P-154]
10.0	2			CC1(Nc2cc(-n3ncc4cc(C#N)c(N)nc43)ncc2-n2cc([C@H]3CC[C@H](CCN4CCN(c5ccc(C6CCC(=O)NC6=O)cc5)CC4)CC3)nn2)CC1 (stereo partly drawn) [P-157]
16.0	65			C[C@H](C#N)Nc1cc(-n2ncc3cc(C#N)cnc32)ncc1C(=O)N[C@H]1CC[C@H](CCN2C[C@H](C)N(c3ccc(C4CCC(=O)NC4=O)cc3)C[C@@H]2C)CC1 (stereo partly drawn) [P-158]
6.1	7	<0.5	18	C[C@H](C#N)Nc1cc(-n2ncc3cnc(N)nc32)ncc1C(=O)N[C@H]1CC[C@H](CCN2CCN(c3ccc(C4CCC(=O)NC4=O)cc3)CC2)CC1 (stereo partly drawn) [P-159]
